Results reported in patent US5032576A, “Method for controlling female moths using a peptide” (The United States of America as represented by the …, priority 1989, dated 1991).
Where two headings read alike, the source gives them in different places. Where a SMILES comes first, the peptide text is derived from it.

Tests used:
[1] = tested on: third instar H. zea larvae
Description: Peptide of the Formula I, wherein X is Asp and Y is Leu(NH2) was dissolved in sucrose phosphate buffer and serially diluted to obtain 0.1, 1.0, 10, 100, and 1000 pmoles/5 μL of buffer. The peptide was then injected into third instar H. zea larvae the day before their moult to fourth instar. Observations for melanization (intense black color formation) were recorded after 48 hr.

[2] = tested on: M. sexta (tobacco hornworm); details: (E,Z)-10,12-hexadecadienal per female ± SE, N = 5; 5 pmoles injected
Description: (§1) Bioassay procedure is described in Example 6. Each female was injected
(§2) of the synthetic peptide in 10 microliter of buffer. The major component
(§3) Dose response of the peptide of Formula I, wherein X is Asp and Y is Leu(NH2): the peptide was dissolved in sucrose phosphate buffer and injected into ligated 3-day-old females during scotophase. Pheromone was extracted 3 hr after injection and quantified by capillary gas chromatography.

[3] = tested on: S. frugiperda (fall armyworm); details: per female ± SE, N = 5; 5 pmoles injected
Description: as §1, §2, §3

[4] = tested on: O. nubilalis (European corn borer); details: (E)-11-tetradecen-1-ol acetate per female ± SE, N = 5; 5 pmoles injected
Description: as §1, §2, §3

[5] = tested on: H. virescens (tobacco budworm); details: (Z)-11-hexadecenal per female ± SE, N = 5; 5 pmoles injected
Description: as §1, §2, §3

[6] = tested on: D. nitidalis (pickle worm); details: (E)-11-hexadecenal per female ± SE, N = 5; 5 pmoles injected
Description: as §1, §2, §3

L. dispar (gypsy moth) = details: cis-2-decyl-3-(5-methylhexyl) oxirane per female ± SE, N = 5; 5 pmoles injected
Description: as §1, §2, §3

[7] = tested on: ligated females of six other species of moths
Description: as §1, §2

ligated H. zea females = assay: Pheromone production bioassay: injection into ligated H. zea females; assay type: in vivo, Heliothis zea; details: for ng/Female H. zea (Z)-11-Hexadecenal: injected into ligated females

| SMILES | melanization ([1]; 10 pmole dose, recorded after 48 hr) [%] | melanization ([1]; 10 pmoles/larva, after the moult to the fourth instar) | mortality ([1]; 10 pmoles/larva, associated with melanization) | Quantity of the Major Component in the Pheromone of Hex-PBAN injected Female [2] [ng] | Quantity of the Major Component in the Pheromone of Hex-PBAN injected Female [3] [ng] | Quantity of the Major Component in the Pheromone of Hex-PBAN injected Female [4] [ng] | Quantity of the Major Component in the Pheromone of Hex-PBAN injected Female [5] [ng] | Quantity of the Major Component in the Pheromone of Hex-PBAN injected Female [6] [ng] | Quantity of the Major Component in the Pheromone of Hex-PBAN injected Female (L. dispar (gypsy moth)) [ng] | quantity of pheromone produced relative to that found in normal females ([7]; in two of the six species) | production of their respective pheromones ([7]; injected into ligated females of six other species) | ng/Female H. zea (Z)-11-Hexadecenal (ligated H. zea females; Dose 1.0 pMole) [ng/Female] | ng/Female H. zea (Z)-11-Hexadecenal (ligated H. zea females; Dose 10.0 pMole) [ng/Female] | ng/Female H. zea (Z)-11-Hexadecenal (ligated H. zea females; Dose 100.0 pMole) [ng/Female] | pheromone production at doses greater than 4.0 pmoles (ligated H. zea females; doses greater than 4.0 pmoles) | production of the sex pheromone (ligated H. zea females; injected into ligated H. zea females) | ng/Female H. zea (Z)-11-Hexadecenal (ligated H. zea females; Dose 1000.0 pMole) [ng/Female] |
| --- | --- | --- | --- | --- | --- | --- | --- | --- | --- | --- | --- | --- | --- | --- | --- | --- | --- |
| CC[C@H](C)[C@H](NC(=O)[C@H](CCC(N)=O)NC(=O)[C@H](CCC(=O)O)NC(=O)[C@@H]1CCCN1C(=O)[C@H](CC(=O)O)NC(=O)[C@H](CCC(N)=O)NC(=O)[C@H](CCCNC(=N)N)NC(=O)[C@H](Cc1ccc(O)cc1)NC(=O)[C@H](CCSC)NC(=O)[C@H](CCC(=O)O)NC(=O)[C@H](CCC(N)=O)NC(=O)[C@H](CC(=O)O)NC(=O)[C@H](C)NC(=O)[C@@H]1CCCN1C(=O)[C@@H](NC(=O)[C@H](C)NC(=O)[C@@H]1CCCN1C(=O)[C@H](CCSC)NC(=O)[C@H](CC(=O)O)NC(=O)[C@H](CC(=O)O)NC(=O)[C@H](CO)NC(=O)[C@@H](N)CC(C)C)[C@@H](C)O)C(=O)N[C@@H](CC(=O)O)C(=O)N[C@@H](CO)C(=O)N[C@@H](CCCNC(=N)N)C(=O)N[C@H](C(=O)N[C@@H](CCCCN)C(=O)N[C@@H](Cc1ccc(O)cc1)C(=O)N[C@@H](Cc1ccccc1)C(=O)N[C@@H](CO)C(=O)N1CCC[C@H]1C(=O)N[C@@H](CCCNC(=N)N)C(=O)N[C@@H](CC(C)C)C(N)=O)[C@@H](C)O [Compound 1] (H-LSDDMPATPADQEMYRQDPEQIDSRTKYFSPRL-NH2) | 100 | intense melanization | significant mortality | 65.4 ± 11.9 | 42.9 ± 12.2 | 6.7 ± 1.1 | 189.2 ± 12.2 | 49.2 ± 16.3 | 2.5 ± 0.4 | 6-7 times | significant amounts | 4.6 | 128.2 | 179.9 | significant decrease | normal production |  |
| CC[C@H](C)[C@H](NC(=O)[C@H](CCC(N)=O)NC(=O)[C@H](CCC(=O)O)NC(=O)[C@@H]1CCCN1C(=O)[C@H](CC(=O)O)NC(=O)[C@H](CCC(N)=O)NC(=O)[C@H](CCCNC(=N)N)NC(=O)[C@H](Cc1ccc(O)cc1)NC(=O)[C@H](CCSC)NC(=O)[C@H](CCC(=O)O)NC(=O)[C@H](CCC(N)=O)NC(=O)[C@H](CC(=O)O)NC(=O)[C@H](C)NC(=O)[C@@H]1CCCN1C(=O)[C@@H](NC(=O)[C@H](C)NC(=O)[C@@H]1CCCN1C(=O)[C@H](CCSC)NC(=O)[C@H](CC(=O)O)NC(=O)[C@H](CC(=O)O)NC(=O)[C@H](CO)NC(=O)[C@@H](N)CC(C)C)[C@@H](C)O)C(=O)N[C@@H](CC(N)=O)C(=O)N[C@@H](CO)C(=O)N[C@@H](CCCNC(=N)N)C(=O)N[C@H](C(=O)N[C@@H](CCCCN)C(=O)N[C@@H](Cc1ccc(O)cc1)C(=O)N[C@@H](Cc1ccccc1)C(=O)N[C@@H](CO)C(=O)N1CCC[C@H]1C(=O)N[C@@H](CCCNC(=N)N)C(=O)N[C@@H](CC(C)C)C(N)=O)[C@@H](C)O [Compound 3] (H-LSDDMPATPADQEMYRQDPEQINSRTKYFSPRL-NH2) |  |  |  |  |  |  |  |  |  |  |  | 1.7 | 97.1 | 145.7 |  |  |  |
| CC[C@H](C)[C@H](NC(=O)[C@H](CCC(N)=O)NC(=O)[C@H](CCC(=O)O)NC(=O)[C@@H]1CCCN1C(=O)[C@H](CC(=O)O)NC(=O)[C@H](CCC(N)=O)NC(=O)[C@H](CCCNC(=N)N)NC(=O)[C@H](Cc1ccc(O)cc1)NC(=O)[C@H](CCSC)NC(=O)[C@H](CCC(=O)O)NC(=O)[C@H](CCC(N)=O)NC(=O)[C@H](CC(=O)O)NC(=O)[C@H](C)NC(=O)[C@@H]1CCCN1C(=O)[C@@H](NC(=O)[C@H](C)NC(=O)[C@@H]1CCCN1C(=O)[C@H](CCSC)NC(=O)[C@H](CC(=O)O)NC(=O)[C@H](CC(=O)O)NC(=O)[C@H](CO)NC(=O)[C@@H](N)CC(C)C)[C@@H](C)O)C(=O)N[C@@H](CC(N)=O)C(=O)N[C@@H](CO)C(=O)N[C@@H](CCCNC(=N)N)C(=O)N[C@H](C(=O)N[C@@H](CCCCN)C(=O)N[C@@H](Cc1ccc(O)cc1)C(=O)N[C@@H](Cc1ccccc1)C(=O)N[C@@H](CO)C(=O)N1CCC[C@H]1C(=O)N[C@@H](CCCNC(=N)N)C(=O)N[C@@H](CC(C)C)C(=O)O)[C@@H](C)O [Compound 4] (H-LSDDMPATPADQEMYRQDPEQINSRTKYFSPRL-OH) |  |  |  |  |  |  |  |  |  |  |  |  | 0.9 | 3.2 |  |  | 112.1 |
